Reference: patent US11311513B2, “Methods, agents, and compositions for the treatment of acute myeloid leukemia” (UNIVERSITY OF CINCINNATI, priority 2017, dated 2022)

Legend:
Assay type in all cases: cell-based
[1] = test system: Tet1 deficient mouse BM progenitor cells transduced with MLL-AF9; experiment: Viability of MLL-AF9-transduced Tet1 deficient BM progenitor cells; conditions: 48 hrs; 200 nM (FIG. 13)
Protocol: FIG. 5. […] Gene expression levels are shown. […] ChIP-qPCR assay was carried out 48 hrs after drug treatment. Enrichment of STAT3, STAT5, or IgG at the TET1 promoter region and other regions are shown. […] BM progenitor cells of wild-type or Tet1^−/− mice were retrovirally transduced with MLL-AF9. […] Relative cell viabilities are shown. (m) Cre-Tet1f mouse BM progenitor cells were retrovirally transduced with MLL-AF9. […] Relative cell viability is shown. (n-o) THP-1 (n) and MONOMAC-6 (o) cells were infected with lentivirus of pLenti-puro vector-based Tet1 construct. […] Relative cell viability is shown. *, P<0.05; **, P<0.01, two-tailed t-test. Error bar indicates SD of triplicate experiments.
FIG. 13. […] (a-d) BM progenitor cells of wild-type or Tet1^−/− mice were retrovirally transduced with MLL-AF9. Infected cells were treated with 200 nM JAK/STAT inhibitors individually, including Pacritinib (a), KW-2449 (b), Stattic (c) or sc-355979 (d), for 48 hrs. Relative cell viabilities are shown. (e) Cre-Tet1^fl/fl mouse BM progenitor cells were retrovirally transduced with MLL-AF9. […] Cell viabilities (normalized to non-induced Cre-Tet1^fl/fl treated with DMSO control) are shown. ‘K, P<0.05; ‘K‘K, P<0.01, two-tailed t-test
siRNAs were transfected into MONOMAC-6 cells with Cell Line Nucleofector Kit V following program T-037, using the Amaxa Nucleofector Technology (Amaxa Biosystems, Berlin, Germany). Experiments were performed 48 h after transfection. Retrovirus infection of mouse BM progenitor cells were conducted as described previously with some modifications. Briefly, retrovirus vectors were co-transfected with pCL-Eco packaging vector (IMGENEX, San Diego, Calif.) into HEK293T cells using Effectene Transfection Reagent (Qiagen, Valencia, Calif.) to produce retrovirus. BM cells were harvested from a cohort of 4- to 6-week-old C57BL/6, Tet1^−/−, or Cre-Tet1^fl/fl donor mice after five days of 5-fluorouracil (5-FU) treatment, and primitive hematopoietic progenitor cells were enriched with Mouse Lineage Cell Depletion Kit (Miltenyi Biotec Inc., Auburn, Calif.). An aliquot of enriched hematopoietic progenitor cells was added to retroviral supernatant together with polybrene in cell culture plates, which were centrifuged at 2,000 g for 2 hours at 32° C. (i.e., spinoculation) and then the medium was replaced with fresh media and incubated for 20 hours at 37° C. Next day, the same procedure was repeated once. Infected cells were grown in RPMI 1640 medium containing 10 ng/mL murine recombinant IL-3, 10 ng/mL IL-6, 100 ng/mL murine recombinant SCF (R&D Systems, Minneapolis, Minn.), along with 1.0 mg/ml of G418. Experiments were performed 7 days after infection.
(§1) These experiments were conducted as described previously (Jiang, X., et al., Blockade of miR-150 Maturation by MLL-Fusion/MYC/LIN-28 Is Required for MLL-Associated Leukemia, Cancer Cell 22:524-35 (2012); Li, Z., et al., miR-196b directly targets both HOXA9/MEIS1 oncogenes and FAS tumour suppressor in MLL-rearranged leukaemia, Nat Commun 2:688 (2012)) with ApoLive-Glo Multiplex Assay Kit, or CellTiter 96 AQueous Non-Radioactive Cell Proliferation Assay Kit (Promega, Madison, Wis.).

[2] = test system: THP-1 NSC-370284-resistant clones; experiment: Viability of THP-1 NSC-370284-resistant clones with chemotherapy drugs; conditions: 3 resistant clones; 48 hours
Protocol: FIG. 6. […] (a) NSC-370284-resistant AML cells are sensitive to DNR. Three of the THP-1 NSC-370284-resistant clones (DRC-1-3) and the parental control were treated with DNR at indicated doses. Cell viability was tested 48 hours after the treatments. […] Relative cell viability at 48 hours post drug treatment is shown. Error bar indicates SD of triplicate experiments. (d) Synergistic therapy of NSC-370284 or UC-514321 in combination with standard chemotherapy. Secondary BMT recipient mice were transplanted with primary MLL-AF9 leukemic BM cells. […] 5-9 mice were included in each group. Kaplan-Meier curves are shown. The P values were determined by log-rank test. (e) Wright-Giemsa staining of mouse PB and BM, or H&E staining of mouse spleen and liver of MLL-AF9 secondary BMT recipients treated with “5+3” alone, or combinational therapy.
Long-term treatment with a drug may cause drug resistance in patients, and thus combinatory therapy is often required. To treat AML cells that have gained resistance to inhibitors, the effects of a set of first-line AML chemotherapy drugs including daunorubicin (DNR), cytarabine (AraC), all-trans retinoic acid (ATRA), azacytidine (AZA), and decitabine (DAC) on the viability of parental THP-1 cells and three NSC-370284-resistant clones were investigated (FIG. 6a and FIG. 18a-d).

[3] = test system: TET1-high AML (including MONOMAC-6, THP-1, and KASUMI-1) cells; experiment: MTS viability of AML cell lines versus JAK/STAT inhibitors; conditions: MTS 48 hrs; maximum concentration tested 500 nM
Protocol: FIG. 4. […] (a) Structures of NSC-370284 and UC-514321. […] Cells were treated with drugs at indicated doses. Cell viability was detected by MTS 48 hrs post-treatment. Error bar indicates SD of triplicate experiments. […] Secondary BMT recipient mice were transplanted with primary leukemic BM cells with MLL-AF9 (f) or AML-ETO9a (g). […] Kaplan-Meier curves are shown. The P values were determined by log-rank test. […] Secondary BMT recipient mice were transplanted with primary leukemic BM cells with MLL-AF10 or FLT3-ITD/NPM1^mut. […] Kaplan-Meier curves are shown. The P values were determined by log-rank test. (j) Wright-Giemsa staining of mouse PB and BM, or H&E staining of mouse spleen and liver of MLL-AF9 AML secondary BMT recipients with or without drug treatment.
as §1

Structure (SMILES)	difference in cell viability between wild-type and Tet1 deficient cells [1]	sensitivity of drug-resistant clones relative to parental THP-1 control [2]	inhibitory effects on the viability of these AML cells [3]
O=C(c1ccc(/C=C/c2n[nH]c3ccccc23)cc1)N1CCNCC1 [KW-2449, reference compound]	no significant differences	–	–
C1=C/COCc2cc(ccc2OCCN2CCCC2)Nc2nccc(n2)-c2cccc(c2)COC/1 [Pacritinib, reference compound]	no significant differences	–	–
COc1cccc2c1C(=O)c1c(O)c3c(c(O)c1C2=O)C[C@@](O)(C(C)=O)C[C@@H]3O[C@H]1C[C@H](N)[C@H](O)[C@H](C)O1 [DNR, daunorubicin]	–	much more sensitive	–
O=[N+]([O-])c1ccc2c(c1)S(=O)(=O)C=C2 [Stattic, reference compound]	no significant differences	–	did not show significant inhibitory effects
O=C(NN=Cc1coc2ccccc2c1=O)c1cccnc1 [sc-355979, reference compound]	no significant differences	–	did not show significant inhibitory effects
